The values that follow come from PubChem BioAssay AID743340 (Broad Institute, 2014).

Structures are written as SMILES. Records with an inconclusive call do not appear. Active and inactive are the calls of the source.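 The calls were made as follows: active = compounds whose fitted AC50 for signal loss is at most twice the top valid dose tested; inconclusive = flat curve with 30 to 70% inhibition, or poor fit; inactive = the rest.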 Some results are limits rather than exact numbers.

For the first test, the target named is Leucyl-cystinyl aminopeptidase (Mus musculus) (UniProt Q8C129). Description: inhibition of mouse IRAP aminopeptidase activity – biochemical, Leu-AMC fluorescence, cherry-picked samples, set 2, selectivity assay for ERAP1 modulator project, dose response (AID 743340). Particulars: purified IRAP, Leu-AMC cleavage fluorescence, 1 h.
Leucyl-cystinyl aminopeptidase (Mus musculus), sequence (Q8C129 whole entry, looked up): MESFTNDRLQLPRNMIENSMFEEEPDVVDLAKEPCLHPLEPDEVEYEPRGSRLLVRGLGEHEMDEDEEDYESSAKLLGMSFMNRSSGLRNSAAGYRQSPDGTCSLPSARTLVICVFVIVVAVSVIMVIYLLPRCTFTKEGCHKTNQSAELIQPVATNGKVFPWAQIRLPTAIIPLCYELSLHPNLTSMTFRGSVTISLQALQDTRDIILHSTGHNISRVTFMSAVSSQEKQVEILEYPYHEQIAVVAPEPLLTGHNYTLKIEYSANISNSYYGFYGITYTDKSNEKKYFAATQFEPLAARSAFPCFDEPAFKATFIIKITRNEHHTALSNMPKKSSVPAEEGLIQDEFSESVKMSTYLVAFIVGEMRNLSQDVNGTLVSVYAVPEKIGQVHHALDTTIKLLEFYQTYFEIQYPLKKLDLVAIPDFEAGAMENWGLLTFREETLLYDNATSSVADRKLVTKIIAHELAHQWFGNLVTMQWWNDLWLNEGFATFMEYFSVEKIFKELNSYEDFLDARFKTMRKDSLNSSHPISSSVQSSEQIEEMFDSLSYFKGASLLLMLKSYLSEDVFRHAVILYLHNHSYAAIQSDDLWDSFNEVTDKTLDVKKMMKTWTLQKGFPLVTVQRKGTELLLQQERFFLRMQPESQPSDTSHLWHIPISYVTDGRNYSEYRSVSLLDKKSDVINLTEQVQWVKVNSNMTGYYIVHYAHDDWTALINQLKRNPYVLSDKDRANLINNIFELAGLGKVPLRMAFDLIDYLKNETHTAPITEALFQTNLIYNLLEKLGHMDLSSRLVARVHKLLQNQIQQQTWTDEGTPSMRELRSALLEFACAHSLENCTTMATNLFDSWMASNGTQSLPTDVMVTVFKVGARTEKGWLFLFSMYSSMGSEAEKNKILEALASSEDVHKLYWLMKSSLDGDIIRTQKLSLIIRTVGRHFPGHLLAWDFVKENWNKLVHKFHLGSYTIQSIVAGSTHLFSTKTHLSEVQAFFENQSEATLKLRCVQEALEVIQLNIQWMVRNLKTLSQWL
For `CCCN(C)C[C@@H]1OCCCC[C@@H](C)Oc2ccc(NS(=O)(=O)c3ccc(OC)cc3)cc2C(=O)N([C@H](C)CO)C[C@@H]1C`, the AC50 was 11.2 µM.

Consider `O=C(O)c1ccccc1NS(=O)(=O)c1cccc(-n2sc3ccccc3c2=O)c1`, for which the AC50 was > 22 µM (inactive).

`CCCN(C)C[C@@H]1OCCCC[C@@H](C)Oc2ccc(NS(=O)(=O)c3c(C)noc3C)cc2C(=O)N([C@H](C)CO)C[C@@H]1C`: the AC50 is > 20 µM (inactive).

Still in this test, the particulars now being: purified IRAP, Leu-AMC cleavage fluorescence, 1 h; at 2.6 µM (top of the series).
Consider `C[C@@H]1CCCCO[C@@H](CN(C)C(=O)CCC(F)(F)F)[C@@H](C)CN([C@@H](C)CO)C(=O)c2cc(NS(=O)(=O)c3ccccc3)ccc2O1`, for which the “activity change, negative = inhibition” value is “inactive”.

The same test, now with this note: purified IRAP, Leu-AMC cleavage fluorescence, 1 h; at 5 µM (top of the series).
Consider `C[C@@H]1CCCCO[C@@H](CN(C)C(=O)CCC(F)(F)F)[C@@H](C)CN([C@@H](C)CO)C(=O)c2cc(NS(=O)(=O)c3ccc(Cl)cc3)ccc2O1`, for which the “activity change, negative = inhibition” value was “inactive”.

The test is the same for the next values; noted with them: purified IRAP, Leu-AMC cleavage fluorescence, 1 h; at 5.6 µM (top of the series).
As for `C[C@@H]1CCCCO[C@@H](CN(C)Cc2ccccc2)[C@@H](C)CN([C@H](C)CO)C(=O)c2cc(NS(=O)(=O)c3cccs3)ccc2O1`, the “activity change, negative = inhibition” value was “inactive”.

The same test, now with this note: purified IRAP, Leu-AMC cleavage fluorescence, 1 h; at 11 µM (top of the series).
Take `CC(=O)N1CCN(C(=O)C2(NC(=O)Nc3ccc(C)cc3)CCCCC2)CC1`: the “activity change, negative = inhibition” value is “inactive”.

For the molecule `C[C@@H]1CCCCO[C@H](CN(C)C)[C@H](C)CN([C@H](C)CO)C(=O)c2cc(NS(=O)(=O)c3ccc(Cl)cc3)ccc2O1`, the “activity change, negative = inhibition” value is “inactive”.

For `C[C@@H]1CCCCO[C@H](CN(C)Cc2ccc(C(=O)O)cc2)[C@@H](C)CN([C@H](C)CO)C(=O)c2cc(NC(=O)Nc3ccc(C(F)(F)F)cc3)ccc2O1`, the “activity change, negative = inhibition” value was “inactive”.

Regarding `CCn1cc(CN2CCCC(C(=O)Nc3ccc(-c4nc5ccccc5[nH]4)cc3)C2)c(C)n1` (stereo unspecified), the “activity change, negative = inhibition” value was “inactive”.

On to `CCC(=O)N(C)C[C@@H]1Oc2ncc(C#Cc3ccncc3)cc2C(=O)N([C@@H](C)CO)C[C@@H]1C`, for which the “activity change, negative = inhibition” value was “inactive”.

As for `COc1ccc(CN(C)C[C@H]2OCCCC[C@@H](C)Oc3ccc(NS(=O)(=O)c4cccs4)cc3C(=O)N([C@@H](C)CO)C[C@H]2C)cc1`, the “activity change, negative = inhibition” value is “inactive”.

Take `C[C@@H]1CN([C@H](C)CO)C(=O)c2cc(NC(=O)Nc3ccc(F)cc3)ccc2O[C@H]1CN(C)Cc1ccc(C(=O)O)cc1`: the “activity change, negative = inhibition” value was “inactive”.

Turning to `C[C@@H]1CCCCO[C@@H](CN(C)Cc2ccccc2)[C@H](C)CN([C@H](C)CO)C(=O)c2cc(NS(=O)(=O)c3cccs3)ccc2O1`, the “activity change, negative = inhibition” value is “inactive”.

For the molecule `COc1ccc(CN(C)C[C@@H]2OCCCC[C@@H](C)Oc3ccc(NS(=O)(=O)c4cccs4)cc3C(=O)N([C@H](C)CO)C[C@@H]2C)cc1`, the “activity change, negative = inhibition” value is “inactive”.

Regarding `COc1cccc(S(=O)(=O)N(C)C[C@@H]2Oc3ncccc3C(=O)N([C@H](C)CO)C[C@@H]2C)c1`, the “activity change, negative = inhibition” value was “inactive”.

On to `COc1ccc(NC(=O)Nc2ccc3c(c2)C(=O)N([C@H](C)CO)C[C@@H](C)[C@@H](CN(C)Cc2ccc(C(=O)O)cc2)OCCCC[C@@H](C)O3)cc1`, for which the “activity change, negative = inhibition” value was “inactive”.

Turning to `O=C(CSc1cn[nH]n1)Nc1cccc(C(=O)O)c1`, the “activity change, negative = inhibition” value was “inactive”.

As to `COc1ccc(CN(C)C[C@@H]2OCCCC[C@@H](C)Oc3ccc(NS(=O)(=O)c4cccs4)cc3C(=O)N([C@@H](C)CO)C[C@H]2C)cc1`, the “activity change, negative = inhibition” value is “inactive”.

For `CCCN(C)C[C@@H]1OCCCC[C@@H](C)Oc2ccc(NS(=O)(=O)c3ccccc3)cc2C(=O)N([C@H](C)CO)C[C@@H]1C`, the “activity change, negative = inhibition” value is “inactive”.

Turning to `O=C(C[C@H]1CC[C@H]2[C@@H](COC[C@@H](O)CN2C(=O)Nc2cccc(Cl)c2)O1)N1CCCCC1`, the “activity change, negative = inhibition” value was “inactive”.

As to `C[C@@H]1CCCCO[C@@H](CN(C)CC2CCCCC2)[C@H](C)CN([C@@H](C)CO)C(=O)c2cc(NC(=O)Nc3ccccc3)ccc2O1`, the “activity change, negative = inhibition” value is “inactive”.

Consider `Cc1noc(C)c1NC(=O)N(C)C[C@@H]1Oc2c(NC(=O)Nc3ccccc3)cccc2C(=O)N([C@H](C)CO)C[C@@H]1C`, for which the “activity change, negative = inhibition” value is “inactive”.

As for `C[C@@H]1CCCCO[C@@H](CN(C)Cc2ccc3c(c2)OCO3)[C@@H](C)CN([C@H](C)CO)C(=O)c2cc(NS(=O)(=O)c3cccs3)ccc2O1`, the “activity change, negative = inhibition” value is “inactive”.

With `Cc1cc(=O)oc2c(CN3CCN(C)CC3)c(O)c(Cl)cc12`, the “activity change, negative = inhibition” value is “inactive”.

Consider `COc1ccc2c3c([nH]c2c1)[C@H](CO)N(Cc1cc(F)ccc1F)CC31CN(C)C1`, for which the “activity change, negative = inhibition” value was “inactive”.

In the case of `C[C@@H]1CCCCO[C@@H](CN(C)C)[C@@H](C)CN([C@@H](C)CO)C(=O)c2cc(NS(=O)(=O)c3ccc(F)cc3)ccc2O1`, the “activity change, negative = inhibition” value is “inactive”.

Consider `COC(=O)[C@H]1[C@H](CO)[C@H]2Cn3c(ccc(-c4ccncc4)c3=O)[C@H]2N1Cc1ccccc1F`, for which the “activity change, negative = inhibition” value is “inactive”.

`NC(=NCCc1c[nH]c2ccccc12)NS(=O)(=O)c1cc(F)ccc1F`: the “activity change, negative = inhibition” value was “inactive”.

`COc1ccc(CN(C)C[C@@H]2OCCCC[C@H](C)Oc3ccc(NS(=O)(=O)c4cccs4)cc3C(=O)N([C@H](C)CO)C[C@@H]2C)cc1`: the “activity change, negative = inhibition” value was “inactive”.

Take `COc1ccc(NC(=O)Nc2ccc3c(c2)C(=O)N([C@H](C)CO)C[C@@H](C)[C@H](CN(C)Cc2ccc(C(=O)O)cc2)OCCCC[C@@H](C)O3)cc1`: the “activity change, negative = inhibition” value is “inactive”.

As to `C[C@@H]1CCCCO[C@@H](CN(C)C)[C@@H](C)CN([C@@H](C)CO)C(=O)c2cc(NS(=O)(=O)c3ccc(Cl)cc3)ccc2O1`, the “activity change, negative = inhibition” value was “inactive”.

With `Cc1ccccc1-c1ccc2c(c1)O[C@@H](CN(C)Cc1ccc(C(=O)O)cc1)[C@@H](C)CN([C@@H](C)CO)S2(=O)=O`, the “activity change, negative = inhibition” value is “inactive”.

Regarding `CCCN(C)C[C@@H]1OCCCC[C@@H](C)Oc2ccc(NS(=O)(=O)c3ccc(F)cc3)cc2C(=O)N([C@H](C)CO)C[C@@H]1C`, the “activity change, negative = inhibition” value was “inactive”.

Take `COc1ccc(NC(=O)Nc2cccc3c2O[C@H](CN(C)Cc2ccc(C(=O)O)cc2)[C@H](C)CN([C@H](C)CO)C3=O)cc1`: the “activity change, negative = inhibition” value is “inactive”.

In the case of `COc1ccc(CN(C)C[C@@H]2OCCCC[C@@H](C)Oc3ccc(NS(=O)(=O)c4cccs4)cc3C(=O)N([C@H](C)CO)C[C@H]2C)cc1`, the “activity change, negative = inhibition” value was “inactive”.

As to `O=C(O)c1cccc(NC(=O)c2ccccc2NC(=O)c2cccc([N+](=O)[O-])c2)c1`, the “activity change, negative = inhibition” value was “inactive”.

`C[C@@H]1CCCCO[C@@H](CN(C)Cc2ccc(C(=O)O)cc2)[C@@H](C)CN([C@H](C)CO)C(=O)c2cc(NC(=O)Nc3cccc4ccccc34)ccc2O1`: the “activity change, negative = inhibition” value is “inactive”.

Consider `C[C@@H]1CN([C@H](C)CO)C(=O)c2cccc(NC(=O)Nc3ccccc3)c2O[C@@H]1CN(C)Cc1ccc(C(=O)O)cc1`, for which the “activity change, negative = inhibition” value was “inactive”.

On to `Cc1ccccc1-c1ccc2c(c1)O[C@@H](CN(C)Cc1ccc(C(=O)O)cc1)[C@@H](C)CN([C@H](C)CO)S2(=O)=O`, for which the “activity change, negative = inhibition” value was “inactive”.

`C[C@H](CO)N1C[C@H](C)[C@H](CN(C)CC2CCCCC2)Oc2c(NC(=O)Nc3ccc4c(c3)OCO4)cccc2C1=O`: the “activity change, negative = inhibition” value is “inactive”.

Turning to `CCCNC(=O)C[C@@H]1CC[C@@H]2[C@H](COC[C@H](O)CN2C(=O)Nc2cccc(Cl)c2)O1`, the “activity change, negative = inhibition” value was “inactive”.

In the case of `Cc1noc(C)c1S(=O)(=O)Nc1ccc2c(c1)C(=O)N([C@H](C)CO)C[C@@H](C)[C@@H](CN(C)CC1CCCCC1)OCCCC[C@@H](C)O2`, the “activity change, negative = inhibition” value was “inactive”.

With `C[C@H]1CN([C@@H](C)CO)C(=O)c2cccc(NC(=O)Nc3ccc4c(c3)OCO4)c2O[C@@H]1CN(C)CC1CC1`, the “activity change, negative = inhibition” value was “inactive”.

For the molecule `C[C@@H]1CCCCO[C@@H](CN(C)CC2CC2)[C@@H](C)CN([C@H](C)CO)C(=O)c2cc(NS(=O)(=O)c3cccs3)ccc2O1`, the “activity change, negative = inhibition” value was “inactive”.

As for `COc1ccc(CN(C)C[C@@H]2OCCCC[C@H](C)Oc3ccc(NS(=O)(=O)c4cccs4)cc3C(=O)N([C@@H](C)CO)C[C@@H]2C)cc1`, the “activity change, negative = inhibition” value was “inactive”.

For the molecule `O=C(Nc1ccc(C(F)(F)F)cc1)N1[C@@H]2CNC[C@H]1C2c1ccc(-c2ccncc2)cc1` (stereo partly specified), the “activity change, negative = inhibition” value was “inactive”.

Regarding `COc1ccc(S(=O)(=O)Nc2ccc3c(c2)C(=O)N([C@@H](C)CO)C[C@H](C)[C@H](CN(C)C)OCCCC[C@@H](C)O3)cc1`, the “activity change, negative = inhibition” value is “inactive”.

`C[C@@H]1CCCCO[C@H](CN(C)Cc2ccccc2)[C@H](C)CN([C@H](C)CO)C(=O)c2cc(NS(=O)(=O)c3ccccc3)ccc2O1`: the “activity change, negative = inhibition” value was “inactive”.

Regarding `Cc1ccc(-c2cc(C(=O)N3CCCC3)c3ccccc3n2)s1`, the “activity change, negative = inhibition” value is “inactive”.

As for `C[C@@H]1CCCCO[C@@H](CN(C)Cc2ccc(C(=O)O)cc2)[C@H](C)CN([C@@H](C)CO)C(=O)c2cc(NS(=O)(=O)c3ccc(Cl)cc3)ccc2O1`, the “activity change, negative = inhibition” value is “inactive”.

On to `C[C@H](CO)N1C[C@H](C)[C@H](CN(C)Cc2ccncc2)Oc2c(NC(=O)Nc3ccc(C(F)(F)F)cc3)cccc2C1=O`, for which the “activity change, negative = inhibition” value was “inactive”.

With `O=C(C[C@H]1CC[C@@H]2[C@H](COC[C@@H](O)CN2C(=O)Nc2cccc(Cl)c2)O1)N1CCCCC1`, the “activity change, negative = inhibition” value was “inactive”.

Turning to `COc1ccc(CN(C)C[C@H]2OCCCC[C@@H](C)Oc3ccc(NS(=O)(=O)c4cccs4)cc3C(=O)N([C@@H](C)CO)C[C@@H]2C)cc1`, the “activity change, negative = inhibition” value is “inactive”.

As to `COc1ccc(C(=O)O)cc1S(=O)(=O)Nc1cc(C(F)(F)F)ccc1N1CCCCC1`, the “activity change, negative = inhibition” value was “inactive”.

With `CCC(=O)N(C)C[C@H]1Oc2ncc(C#Cc3ccncc3)cc2C(=O)N([C@H](C)CO)C[C@H]1C`, the “activity change, negative = inhibition” value is “inactive”.
